According to patent US20260224596A1, “Phosphate Prodrugs of Cannabinoids” (Emory University, priority 2023, published 2026):
Converted amounts (≈) assume the structure as drawn. Structures can show the parent of a compound that is named as a salt.

Columns and labels:
[1] = Nephelometry solubility in 1% DMSO; assay type: physicochemical; conditions: PBS pH 7.0-7.3 with 1% DMSO, 25° C.; for solubility at 90 min: Dulbecco's phosphate-buffered saline with 1% DMSO, aqueous buffer, kinetic from dmso stock
Procedure: Nephelometry experiments were performed using untreated CORNING® COSTAR® 96-well black polystyrene plates with clear flat bottoms. Sample stock solutions and serial dilutions were prepared with DRISOLV® DMSO purchased from MilliporeSigma. […] Nephelometry data was obtained using a NEPHELOSTAR® microplate reader and processed with MARS data analysis software from BMG LabTech.
Tested compounds were dissolved in 100% DMSO to make stock solutions of specified concentrations, ranging from 10 mM minimum up to 50 mM maximum. The sample then underwent serial dilution in a 96-well plate (CORNING® COSTAR®). Well A1 of the plate contained 100% DMSO. […] Using a 12-channel multichannel pipette, 2.5 μL of sample from row A was transferred to each well in row B through row H of the plate. Next, 30 μL of PBS (pH=7.0-7.3) was added to row B through row H, providing each well with 32.5 μL. The plate was then incubated for 30 sec with shaking. Finally. 217.5 μL of PBS buffer was added to row B through row H, and the entire plate was incubated with shaking at 25° C. for 90 min. The final volume of DMSO in actual experiments with PBS buffer was 1% throughout the plate. After 90 min. the 96-well plate was analyzed with a NEPHELOSTAR® instrument and the data was processed with MARS data analysis software.

[2] = Liver microsome stability assay (HLM); assay type: in vitro ADME; conditions: human liver microsomes, 3 μM test compound, NADPH, 0-30 min, LC-MS/MS; for half-life at 3 μM: pH 7.4, read-out: T½ in HLM
Procedure: As used herein, the “human liver microsomes stability, T1/2” is determined according to the procedure described in Example 9.
Human and mouse liver microsomes were purchased from Xenotech at 20 mg/mL. NADPH (Sigma-Aldrich) 10 mM stocks were prepared in deionized water.
Test compounds and positive controls were dissolved in 100% DMSO to make 10 mM stock solutions. Verapamil (Sigma-Aldrich) and diphenhydramine (Sigma-Aldrich) were used as positive controls for both human liver microsomes (HLM) and mouse liver microsomes (MLM). The 10 mM stock solutions of test and control compounds were further diluted in potassium phosphate buffer (100 mM, pH 7.4) to 500 μM to ensure that the organic solvent content was <0.2%. The liver microsome (HLM or MLM) assay was prepared in a 1.5 mL Eppendorf tube with a final volume of 1100 μL for duplicate runs. Each reaction contained phosphate buffer (928.4 μL), liver microsomes (55 μL), and test compound (6.6 μL of 500 μM), resulting in a final concentration of 3 μM for the test compound. The reaction was initiated with 110 μL of 10 mM NADPH. Aliquots (100 μL) were removed in duplicate at 0, 5, 10, 15, and 30 min and quenched in […] of 100% cold methanol which contained internal standard (ISTD: d5-7-ethoxy coumarin 2 μM). The aliquots were centrifuged at 12,000g for 5 min, and the supernatant was transferred and placed in an LC-MS vial. Each time point was assessed by LC-MS/MS, and the area under the m/z curve (AUC), based on the MRM transition, was integrated w.r.t the ISTD. Positive controls were conducted at a final volume of 550 μL to enable a single run for each time point. Negative controls in the absence of NADPH were performed with the test and control compounds, respectively, at a final volume of 150 μL and measured at the most prolonged time point. Control compounds were processed and analyzed like test compounds. Each time point was run in triplicates on LC-MS/MS followed by in-between blank washes to avoid the carryover and to equilibrate the column. Half-life (T1/2) was calculated using the data obtained from LC-MS/MS and by plotting ln (% remaining of the parent prodrug) versus time and performing linear regression to determine slope. Slope=−k and T1/2=0.693/k for first-order kinetics.

Plasma stability assay = assay type: in vitro ADME, human; conditions: for half-life at 3 μM: read-out: T½ in human plasma; for Δ^8-THC detected in plasma: release of parent Δ^8-THC in human plasma incubation
Procedure: As used herein, the “human plasma stability, T1/2” is determined according to the procedure described in Example 10.
Procaine and Procainamide were purchased from Sigma-Aldrich. Human plasma was obtained from BioIVT (Cat. No. […]2N) and 1× Dulbecco's PBS (pH 7.4, Gibco) was obtained from Thermos Fischer. Stock solutions were prepared in 100% DMSO, and suitable dilutions of target analytes were prepared in methanol for method development.
Test compounds were dissolved in DMSO to make a stock solution of 10 mM and then diluted to 500 μM in buffer (or 70% MeOH). Human plasma was thawed at ambient temperature and is aliquoted (994.0 μL) to a 1.5 mL Eppendorf tube in duplicates (A and B) for each compound. Plasma was incubated at 37° C. for 10 minutes in an incubator shaker at 150 rpm; the reaction was initiated by the addition of the test compound (6.0 μL) and vortex mixing. The total reaction volume was 1000 μL where the final organic solvent concentrations were 0.6% MeOH and 0.03% DMSO. The spiked plasma samples were incubated at 37° C. for […]. The reactions were terminated at time points 0, 15, 30, 60, and 120 min by taking a 100 μL aliquot from the test incubation mixture and immediately quenching it in ice-cold mathanol containing internal standard (150 μL with 2 μM ISTD), followed by a quick vortex mixing. In addition, matrix blank was prepared by adding methanol solutions containing ISTD to plasma samples without any of the analytes or control compounds. Also, an additional tube was made to measure compound degradation in PBS buffer. The samples were centrifuged at 15,000 rpm for 25 min at 4° C. The supernatant was transferred to an LC-MS vial for analysis by LC/MS-MS. Each time point was run in duplicates followed by in-between blank washes to avoid the carryover and to equilibrate the column. Half-life (T1/2) was calculated using the data obtained from LC-MS/MS and by plotting ln (% remaining of the parent prodrug) versus time and performing linear regression to determine slope. Slope=−k and T1/2=0.693/k for first-order kinetics. Procaine (poor plasma stability) was used as a positive control at a final concentration of 3 μM. The positive control was run in parallel to test the systems for competency.
An exemplary experimental setup is described below. Conical polypropylene microcentrifuge tubes (1.5 mL) were labelled in duplicate for 0, 15, 30, 60, and 120 min for each compound being tested. • Example: No. of tubes prepared per Test Compound (TC): • Test compound: 994 μL human plasma+6.0 μL TC (Vial A) • 994 μL human plasma+6.0 μL TC (Vial B) • Positive control: 596 μL human plasma+3.6 μL (procaine) • Matrix blank: 500 μL PBS buffer+100 μL human plasma • Negative control: 142 μL PBS buffer+0.9 μL TC1 • Quenching mixture: 150 μL methanol with ISID (2 μM) • Final volume after quenching: 250 μL (100 μL from the incubation mixture and 150 μL from the quenching mixture; ISTD conc. 1.2 μM)

[3] = human plasma, 37° C., time points 0-120 min, LC-MS/MS

SMILES	solubility at 90 min [1]	half-life at 3 μM [2]	half-life at 3 μM (Plasma stability assay; [3])	Δ^8-THC detected in plasma (Plasma stability assay)	Solubility in 1% DMSO ([1]; 90 min)	T½ in HLM [2]	T½ in human plasma (Plasma stability assay; [3])
CCCCCc1cc(OC(=O)CCCOP(=O)(O)O)c2c(c1)OC(C)(C)[C@@H]1CC=C(C)C[C@@H]21.N.N [Compound 16a, (6aR,10aR)-6,6,9-trimethyl-3-pentyl-6a,7,10,10a-tetrahydro-6H-benzo[c]chromen-1-yl 4-(phosphonooxy)butanoate di-ammonium salt]	> 500 µM	51.3 min	> 120 min	Yes	–	–	–
CCCCCc1cc(OC(=O)NCCCOP(=O)(O)O)c2c(c1)OC(C)(C)[C@@H]1CC=C(C)C[C@@H]21.N.N [Compound 21b, (6aR,10aR)-6,6,9-trimethyl-3-pentyl-6a,7,10,10a-tetrahydro-6H-benzo[c]chromen-1-yl (3-(phosphonooxy)propyl)carbamate di-ammonium salt]	> 500 µM	12.5 min	> 120 min	Yes	–	–	–
CCCCCc1cc(OC(=O)NCCOP(=O)(O)O)c2c(c1)OC(C)(C)[C@@H]1CC=C(C)C[C@@H]21.N.N [Compound 21a, (6aR,10aR)-6,6,9-trimethyl-3-pentyl-6a,7,10,10a-tetrahydro-6H-benzo[c]chromen-1-yl (2-(phosphonooxy)ethyl)carbamate di-ammonium salt]	> 500 µM	5.6 min	–	–	–	–	–
CCCCCc1cc(OC(=O)CCCCOP(=O)(O)O)c2c(c1)OC(C)(C)[C@@H]1CC=C(C)C[C@@H]21.N.N [Compound 16b, (6aR,10aR)-6,6,9-trimethyl-3-pentyl-6a,7,10,10a-tetrahydro-6H-benzo[c]chromen-1-yl 5-(phosphonooxy)pentanoate di-ammonium salt]	> 500 µM	40.1 min	–	–	–	–	–
CCCCCc1cc(OC(=O)OCCCOP(=O)(O)O)c2c(c1)OC(C)(C)[C@@H]1CC=C(C)C[C@@H]21 [Compound 11a, 3-(phosphonooxy)propyl ((6aR,10aR)-6,6,9-trimethyl-3-pentyl-6a,7,10,10a-tetrahydro-6H-benzo[c]chromen-1-yl) carbonate di-ammonium salt]	–	18.8 min	–	–	–	–	–
CCCCCc1cc(OC(=O)OCCCCOP(=O)(O)O)c2c(c1)OC(C)(C)[C@@H]1CC=C(C)C[C@@H]21.N.N [Compound 11b, 4-(phosphonooxy)butyl ((6aR,10aR)-6,6,9-trimethyl-3-pentyl-6a,7,10,10a-tetrahydro-6H-benzo[c]chromen-1-yl) carbonate di-ammonium salt]	> 500 µM	17.2 min	> 120 min	Yes	–	–	–
CCCCCc1cc(O)c2c(c1)OC(C)(C)[C@@H]1CC=C(C)C[C@@H]21 (relative stereo) [Δ^8-THC, (−)trans-Δ^8-THC, reference compound]	–	–	–	–	15.93 ± 0.8 µM (≈ 5.01 µg/mL)	5.51 min	1440 ± 360 min
